Results taken from paper PMC11784839, “Monoaminergic neurotransmitters are bimodal effectors of tau aggregation” (Science Advances, 2025).
Entries after “also recorded” stand apart in the source; their conditions may differ. Read-outs that look alike come from different tables or passages of the source.

Key:
[1] = test system: intracellular DA concentrations; details: cited from earlier work
[2] = target: T1, tau (Homo sapiens, UniProt P10636); experiment: Tau biosensor dose titrations (HEK293T tau biosensor cells seeded with AD brain homogenate);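 on all read-outs here: AD brain homogenate preincubated 16 h with compound, then transfected into tau biosensor cells, seeding read as tau puncta counted by imaging, normalized to cell confluence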; assay type: cell-based; details: for effect on seeding at 10 μM: 10 μM final concentration on cells; for effect on seeding at 10 μM / effect on seeding at 50 μM: AD brain homogenate seed; for dose-dependent effect of NT on tau seeding: AD brain homogenate pretreated with indicated amounts of NT (Fig. 3A); for effect on seeding at 50 μM: 50 μM final concentration on cells
[3] = target: tau fibrils purified from AD brain (Homo sapiens, UniProt P10636); experiment: Quantitative electron microscopy (qEM) of fibril disaggregation; assay type: biochemical; details: 75 μM; for effect on tau fibril load (qEM): 24-hour treatment, vs no inhibitor control; for reduction of tau fibril counts: preincubated 24 hours, N = 96 images
tau fibrils purified from AD brain, sequence (P10636 623-695 limits assumed): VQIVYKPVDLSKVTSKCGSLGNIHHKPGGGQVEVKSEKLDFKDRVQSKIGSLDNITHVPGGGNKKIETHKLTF

[4] = target: T1, tau; experiment: MCE Phenols Library screening, tau biosensor cell seeding assay (AvZ); assay type: cell-based; details: for AvZ (average z score of seeding, SDs from the mean level of seeding): 10 μM phenol in cell cultures, AD brain homogenate preincubated 16 hours, two biological replicates, positive = catalyzes seeding, negative = inhibits; for Z repl 1 / Z Repl 2: Z score; for Z repl 1 / raw data 1: replicate 1; for Z Repl 2 / raw data 2: replicate 2; for raw data 1 / raw data 2: puncta
Target sequence in this assay (P10636 623-695 limits assumed): as above

[5] = target: VMAT2; details: cited from earlier work
[6] = target: T2, P301S 4R1N tau fused with YFP (Homo sapiens, UniProt P10636, P618S)
T2 sequence (P10636 1-412 isoform P10636-7 P272S): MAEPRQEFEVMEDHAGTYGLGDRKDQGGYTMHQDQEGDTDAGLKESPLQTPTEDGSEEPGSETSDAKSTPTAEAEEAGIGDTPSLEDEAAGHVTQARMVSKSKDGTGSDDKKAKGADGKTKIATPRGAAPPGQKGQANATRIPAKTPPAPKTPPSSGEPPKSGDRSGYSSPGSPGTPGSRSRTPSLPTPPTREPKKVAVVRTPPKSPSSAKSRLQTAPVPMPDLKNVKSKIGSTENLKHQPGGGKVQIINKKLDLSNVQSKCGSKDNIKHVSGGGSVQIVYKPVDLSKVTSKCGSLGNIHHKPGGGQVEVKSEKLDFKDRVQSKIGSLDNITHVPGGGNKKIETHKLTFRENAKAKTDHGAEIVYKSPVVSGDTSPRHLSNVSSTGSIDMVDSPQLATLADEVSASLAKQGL

[7] = target: T2, P301S 4R1N tau fused with YFP; experiment: cell-based
[8] = AD brain homogenate diluted to […] ptau, read-out: IC50 low tau load

Which “increase of intracellular DA concentrations” value [1] does the source give for N[C@@H](Cc1ccc(O)c(O)c1)C(=O)O [L-dopa] here?
The value was about 10 fold.

And the “intracellular DA concentration in neurons treated with levodopa” value [1]?
Its value is “up to 17 μM”.

And the IC50 [2, 8]?
The IC50 was 1.9 µM.

And the “effect on tau fibril load (qEM)” value [3]?
Its value is “significantly reduce AD tau fibrils”.

And the “reduction of tau fibril counts” value [3]?
Its value is about 75%.

Which “AvZ (average z score of seeding, SDs from the mean level of seeding)” value (“AvZ” below) [4] does the source give for NC(Cc1ccc(O)c(O)c1)C(=O)O (racemic) [DL-DOPA] here?
Its value is 1.763.

What about the “AvZ” value ([4]; listed as DL-dopa) of the same molecule?
Its value is 1.76.

What about the “effect on seeding at 10 μM” value [2] of the same molecule?
The value was “seeding catalyst; also recorded: catalyzed”.

What about the “effect on seeding, concentrations ranging from 10 to 100 μM” value ([2]; 10 to 100 μM, AD brain homogenate seed (Fig. 2A)) of the same molecule?
The value was “dose-dependent inhibitor at higher concentrations”.

For NCCc1c[nH]c2ccc(O)cc12 [serotonin, 5-hydroxytryptamine], which “dose-dependent effect of NT on tau seeding” value (shortened to “dose-dependent effect of NT”) [2] is on record?
The value was “no significant inhibitory effects on tau seeding”.

And the Kd ([5]; read-out: dissociation constant (Kd) for VMAT2)?
Its Kd is 3.3 µM.

Which “AvZ” value [4] does the source give for O=C(O)Cc1c[nH]c2ccc(O)cc12 [5-Hydroxyindole-3-acetic acid] here?
Its value is -0.466.

And the “Z repl 1” value [4]?
Its value is -0.16.

What about the “Z Repl 2” value [4] of the same molecule?
Its value is -0.771.

And the av puncta ([4]; average puncta of the two replicates)?
The av puncta was 14479.9.

And the “raw data 1” value [4]?
The value was 24430.2.

What about the “raw data 2” value [4] of the same molecule?
Its value is 4529.6.

What about the “dose-dependent effect of NT” value [2] of the same molecule?
Its value is “inhibited tau seeding at levels comparable to EP”.

Which “effect of lower doses on seeding in dopaminergic neurons” value ([6]; around 1 μM, high tau load) does the source give for NCCc1ccc(O)c(O)c1 [DA, dopamine, reference compound] here?
Its value is “catalytic effect on seeding”.

What about the “effect on seeding in dopaminergic neurons at 50 μM” value ([6]; final concentration 50 μM on cells) of the same molecule?
The value was “inhibited seeding”.

And the IC50 [7]?
Its IC50 is 16.6 µM.

And the “effect on seeding at 10 μM” value [2]?
Its value is “inhibited”.

What about the IC50 [2, 8] of the same molecule?
Its IC50 is 3.6 µM.

What about the “dose-dependent effect of NT” value [2] of the same molecule?
Its value is “potently and dose-dependently inhibited tau seeding”.

And the IC50 ([2]; AD brain homogenate with ptau […], read-out: IC50 high tau load)?
Its IC50 is 9.8 µM.

What about the “effect on tau fibril load (qEM)” value [3] of the same molecule?
Its value is “significantly reduce AD tau fibrils”.

What about the “reduction of tau fibril counts” value [3] of the same molecule?
The value was “about 50%”.

What about the “affinity for VMAT2 relative to 5-HT” value [5] of the same molecule?
Its value is “comparable or slightly lower affinity for VMAT2 than 5-HT”.

Which results are given for COc1cc(CC(=O)O)ccc1O [Homovanillic acid]?
AvZ (average z score of seeding, SDs from the mean level of seeding) [4]: -0.054; AvZ (average z score of seeding, SDs from the mean level of seeding) ([4]; listed as HVA): −0.054; Z repl 1 [4]: -0.336; Z Repl 2 [4]: 0.228; av puncta ([4]; average of raw data 1 and 2): 18758.8; raw data 1 [4]: 22315.8; raw data 2 [4]: 15201.8; effect on tau fibril load (qEM) ([3]; listed as HVA): significant reduction in fibrils, though to a lesser extent

Which “AvZ” value [4] does the source give for CC(C)=CCc1c(O)cc2oc3cc(O)c(O)c(CCC(C)(C)O)c3c(=O)c2c1O [Garcinone C] here?
The value was 3.115.

What about the “effect on seeding at 10 μM” value [2] of the same molecule?
Its value is “catalyzed seeding”.

What about the “effect on seeding at 50 μM” value [2] of the same molecule?
The value was “inhibited seeding”.

For COc1ccc(-c2cc(=O)c3c(O)cc(O)c(-c4cc(-c5cc(=O)c6c(O)cc(OC)cc6o5)ccc4OC)c3o2)cc1 [sciadopitysin], which “Z repl 1” value [4] is on record?
Its value is 0.092.

What about the “Z Repl 2” value [4] of the same molecule?
The value was 0.543.

And the “av Z” value ([4]; average Z score of the two replicates, tau seeding)?
The value was 0.317.

And the av puncta ([4]; average of raw data 1 and 2)?
The av puncta was 23005.

What about the “raw data 1” value [4] of the same molecule?
The value was 27448.5.

What about the “raw data 2” value [4] of the same molecule?
The value was 18561.5.

And the “effect on seeding at 10 μM” value [2]?
The value was “catalyzed seeding”.

And the “effect on seeding at 50 μM” value [2]?
The value was “inhibited seeding”.
